The test system of data set [1] is Synechocystis sp. strain 6803. Kind of data set: Effect of copper on activity of hydrazones: in vitro growth inhibition of Synechocystis in BG-11 Cu minus / Cu plus medium (Example 11). The class given is cell-based. To be noted: 72 h; for % Inhn. Plus Copper Observed: BG-11 Cu plus medium. As for the experimental part:
In vitro toxicity assays against the cyanobacterium (blue-green alga) Synechocystis sp. strain 6803 were conducted using BG-11 medium except that copper micronutrient, normally included as CuSO4.5H2O, was omitted. The medium, termed BG-11 Cu minus, was prepared by dissolving 1.5 g NaNO3, 40 mg K2HPO4, 6 mg citric acid, 1 mg Na2EDTA and 20 mg Na2CO3 in 1 liter of milli Q water and treating the solution with 0.5 g Chelex 100 resin (Bio-Rad Analytical grade, 50-100 mesh, sodium form, cat#142-2822) by stifling at room temperature for 1 h. 900 mL were decanted and 67.5 mg MgSO4.7H2O, 32.4 mg […], 5.4 mg ferric ammonium citrate and 0.9 mL trace metal mix A5 without copper (2.86 g H3BO3, 1.81 g MnCl2.4H2O, 222 mg ZnSO4.7H2O, 390 mg Na2MoO4.2H2O and Co(NO3)2.6H2O in 1 L Milli Q water) was added. The pH was adjusted to 7.1 and the medium was filter-sterilized. Medium containing copper (BG-11 Cu plus) was prepared by adding CuCl2.2H2O to the BG-11 Cu minus medium at 0.2 μM. Test compounds were dissolved in dimethylsulfoxide (DMSO) at 2 mg/mL then appropriate dilutions in BG-11 Cu minus and BG-11 Cu plus media were prepared in sterilized microcentrifuge tubes. 100 μL aliquots were dispensed into flat-bottomed 96-well microtiter plates. Synechocystis was maintained under 24 h of light on BG-11 agar plates at 27° C. A loopful of cells was added to 50 mL of BG-11 Cu minus growth medium and the culture was incubated with shaking at 200 rpm at 27° C. for 24 h. The culture (10 to 20 mL aliquot) was centrifuged in a bench centrifuge at 2400 rpm for 2 min. The resulting cell pellet was resuspended in 5 mL sterile milli Q water (which had been treated with Chelex 100 resin using 0.5 g resin per liter of water by stirring at room temperature for 1 h), and recentrifuged. The cells were resuspended in BG-11 Cu minus medium, and the suspension adjusted to 4×10^5 spores per mL. Microtiter plates containing compounds as described above were inoculated with 100 μL of this cell suspension and the plates incubated at 27° C. for 72 h before assessing algal growth by measuring light scattering in a NepheloStar plate reader. Growth inhibition was determined by comparing growth in the presence of test compound with growth in control wells lacking test compound. Results for growth inhibition by test compounds in BG-11 Cu plus medium (% Inhn Plus Copper Observed) were compared with predicted values (% Inhn Plus Copper Predicted) that were calculated using the formula set forth by S. R. Colby in Weeds 1967, 15, 20-22 based on-results obtained for the same compounds in BG-11 Cu minus medium (% Inhn Minus Copper Observed) and the inhibition attributed to copper chloride alone, as determined by comparing growth in copper-minus and copper-plus media without any test compound across experiments. Results illustrate that hydrazones and copper produce a synergistic algicidal effect towards Synechocystis.

For data set [2], the system named is C. reinhardtii CC-1928. Briefly: Effect of copper on activity of hydrazones: in vitro growth inhibition of C. reinhardtii in TAP Cu minus / TAP Cu plus medium (Example 10). The format is cell-based, Chlamydomonas reinhardtii. To be noted: test compound 1 μg/mL, 48 h; for inhibition of growth at 1 µg/mL: Chlamydomonas reinhardtii, TAP Cu minus medium, read-out: % Inhn. Minus Copper Observed; for % Inhn. Plus Copper Observed: TAP Cu plus medium (CuCl2). The procedure: In vitro toxicity assays against C. reinhardtii CC-1928 (wild type mt+137c green in dark subclone) obtained from the Chlamydomonas Resource Center at Duke University were conducted using TAP liquid growth medium described by Gorman and Levine Proc. Natl. Acad. Sci. USA 1965, 54, 1665-1669 except that CuSO4.5H2O, normally included as a component of Hutner's trace element stock solution (Hutner et al. Proc. Am. Philos. Soc. 1950, 94, 152-170), was omitted. The TAP medium lacking Cu (TAP Cu minus) was prepared by adding 400 mg NH4Cl, 10 mL of 100× Tris-Acetate (242 g Tris-base and 100 mL glacial acetic acid in 1000 mL milli Q water), and 8.3 mL of 120.5× phosphate buffer (14.34 g K2HPO4 and 7.26 g KH2PO4 in 1000 mL milli Q water) to milli Q water to make a total volume of 1 liter. The medium was treated with 0.5 g Chelex 100 resin (Bio-Rad Analytical grade, 50-100 mesh, sodium form, cat#142-2822) by stirring at room temperature for 1 hour. 900 mL were decanted and 45.9 mg of CaCl2.2H2O, 90 mg of MgSO4.7H2O and 0.9 mL Hutner's trace elements lacking CuSO4.5H2O were added and the solution was filter-sterilized. Medium containing copper (TAP Cu plus) was prepared by adding CuCl2.2H2O to the TAP Cu minus medium at 20 μM. Test compounds were dissolved in dimethylsulfoxide (DMSO) at 2 mg/mL then dilutions in TAP Cu minus and TAP Cu plus media were prepared in sterilized microcentrifuge tubes at 2 μg/mL. 100 μL aliquots of diluted compound were dispensed into flat-bottomed 96-well microtiter plates. C. reinhardtii was maintained under 12 h of light on TAP agar plates at 18° C. A loopful of cells was added to 50 mL of TAP Cu minus medium and the culture incubated with shaking at 200 rpm at 27° C. for 24 h. The culture (10 to 20 mL aliquot) was centrifuged in a bench centrifuge at 2000 rpm for 2 min. The resulting cell pellet was resuspended in 5 mL sterile milli Q water (which had been treated with Chelex 100 resin using 0.5 g resin per liter of water by stirring at room temperature for 1 h), and recentrifuged. The cells were resuspended in TAP Cu minus medium, and the suspension adjusted to 2×10^5 spores per mL. Microtiter plates containing compounds as described above were inoculated with 100 μL of this cell suspension and the plates incubated at 27° C. for 48 h before assessing algal growth by measuring light scattering in a NepheloStar plate-reader. Growth inhibition was determined by comparing growth in the presence of test compound with growth in control wells lacking test compound. Results for growth inhibition by test compounds at 1 μg/mL in TAP Cu plus medium (% Inhn Plus Copper Observed) were compared with predicted values (% Inhn Plus Copper Predicted) that were calculated using the formula set forth by S. R. Colby in Weeds 1967, 15, 20-22 based on results obtained for the same compounds in TAP Cu minus medium (% Inhn Minus Copper Observed). […] Results illustrate that hydrazones and copper produce a synergistic algicidal effect towards C. reinhardtii.

The mark [3] stands for this setting: Synechocystis, Test Concn. 0.05 μg/mL, BG-11 Cu minus medium, read-out: % Inhn. Minus Copper Observed.
Setting [4] is: Synechocystis, Test Concn. 0.0125 μg/mL, BG-11 Cu minus medium, read-out: % Inhn. Minus Copper Observed.

We go through 16 compounds from patent US8906829B2, “Synergistic algicidal compositions including hydrazone derivatives and copper” (Dow AgroSciences LLC, priority 2010, dated 2014).

Broadly, the melting point is the temperature, or range, at which the solid turns liquid.

In turn, `O=C(N/N=C/c1cc(C(F)(F)F)cc(Cl)c1O)c1ccccc1` [Compound 24] yielded a melting point of 216 to 222 °C. The inhibition of growth at 0.05 µg/mL in data set [1] (setting [3]) amounted to 45%. Further, the “% Inhn. Plus Copper Observed” value in data set [1] (Test Concn. 0.05 μg/mL) is 93%. In data set [2], the inhibition of growth at 1 µg/mL was -2% and the “% Inhn. Plus Copper Observed” value was 90%.
The corresponding values for `O=C(N/N=C/c1cc(C(F)(F)F)cc(Cl)c1O)c1cccc(F)c1` [Compound 28] are 210 to 212 °C, 13%, 96%, 12% and 97%.
In turn, `O=C(N/N=C/c1cc(C(F)(F)F)cc(Cl)c1O)c1ccc(F)cc1` [Compound 29] gave a melting point of 200 to 202 °C. In addition, the inhibition of growth at 0.05 µg/mL in data set [1] (setting [3]) was determined as 11%. Besides, the “% Inhn. Plus Copper Observed” value in data set [1] (Test Concn. 0.05 μg/mL) is 96%. Besides, in data set [2], the inhibition of growth at 1 µg/mL came to 16% and the “% Inhn. Plus Copper Observed” value came to 96%.
Consider `O=C(N/N=C/c1cc(C(F)(F)F)cc(Cl)c1O)c1ccccc1O` [Compound 30], for which the melting point was 258 to 260 °C. Moreover, the inhibition of growth at 0.05 µg/mL in data set [1] (setting [3]) is 0%. The “% Inhn. Plus Copper Observed” value in data set [1] (Test Concn. 0.05 μg/mL) was determined as 92%. Moreover, in data set [2], the inhibition of growth at 1 µg/mL was 29% and the “% Inhn. Plus Copper Observed” value was 92%.
Take `Cc1ccc(C(=O)N/N=C/c2cc(C(F)(F)F)cc(Cl)c2O)c(O)c1` [Compound 31]: the melting point lay in the range of 255 to 257 °C. Also, in data set [1] (setting [3]), the inhibition of growth at 0.05 µg/mL was determined as 38%. Also, the “% Inhn. Plus Copper Observed” value in data set [1] (Test Concn. 0.05 μg/mL) is reported as 92%. Also, in data set [2], the inhibition of growth at 1 µg/mL was -1% and the “% Inhn. Plus Copper Observed” value is 88%.
In the same order, the values of `Cc1cccc(C(=O)N/N=C/c2cccc(C(F)(F)F)c2O)c1` [Compound 33] are 188 to 190 °C, 29%, 97%, 21% and 97%.
`O=C(N/N=C/c1cccc(C(F)(F)F)c1O)c1cccc(F)c1` [Compound 34] gave a melting point of 176 to 180 °C. The inhibition of growth at 0.05 µg/mL in data set [1] (setting [3]) came to 34%. In data set [1] (Test Concn. 0.05 μg/mL), the “% Inhn. Plus Copper Observed” value amounted to 91%. Further, in data set [2], the inhibition of growth at 1 µg/mL was determined as 8% and the “% Inhn. Plus Copper Observed” value turned out to be 97%.
The corresponding values for `O=C(N/N=C/c1cccc(C(F)(F)F)c1O)c1ccc(Cl)cc1` [Compound 35] are 215 to 216 °C, 26%, 91%, 9% and 97%.
On to `O=C(N/N=C/c1cccc(C(F)(F)F)c1O)c1ccccc1O` [Compound 36], for which the melting point lay within 230 to 234 °C. Also, the inhibition of growth at 0.0125 µg/mL in data set [1] (setting [4]) is 28%. In addition, the “% Inhn. Plus Copper Observed” value in data set [1] (Test Concn. 0.0125 μg/mL) is 87%. Moreover, in data set [2], the inhibition of growth at 1 µg/mL turned out to be 7% and the “% Inhn. Plus Copper Observed” value is 96%.
Consider `Cc1ccc(C(=O)N/N=C/c2cccc(C(F)(F)F)c2O)c(O)c1` [Compound 37], for which the melting point fell in the range of 248 to 253 °C. Further, the inhibition of growth at 0.0125 µg/mL in data set [1] (setting [4]) was found to be 44%. The “% Inhn. Plus Copper Observed” value in data set [1] (Test Concn. 0.0125 μg/mL) was determined as 88%. Moreover, in data set [2], the inhibition of growth at 1 µg/mL stood at 12% and the “% Inhn. Plus Copper Observed” value was determined as 97%.
For the compound `Cc1cccc(C(=O)N/N=C/c2ccc(Cl)c(Cl)c2O)c1` [Compound 38], the melting point was in the range of 212 to 214 °C. Further, in data set [1] (setting [3]), the inhibition of growth at 0.05 µg/mL is 49%. Moreover, the “% Inhn. Plus Copper Observed” value in data set [1] (Test Concn. 0.05 μg/mL) is given as 93%. In data set [2], the inhibition of growth at 1 µg/mL came to 15% and the “% Inhn. Plus Copper Observed” value amounted to 94%.
In the same order, the values of `O=C(N/N=C/c1ccc(Cl)c(Cl)c1O)c1cccc(F)c1` [Compound 39] are 215 to 218 °C, 31%, 92%, 8% and 91%.
`O=C(N/N=C/c1ccc(Cl)c(Cl)c1O)c1cccc(Cl)c1` [Compound 40] registered a melting point of 219 to 222 °C. Further, the inhibition of growth at 0.00625 µg/mL in data set [1] (Synechocystis, Test Concn. 0.00625 μg/mL, BG-11 Cu minus medium, read-out: % Inhn. Minus Copper Observed) worked out at 4%. Besides, in data set [1] (Test Concn. 0.00625 μg/mL), the “% Inhn. Plus Copper Observed” value is reported as 64%. In data set [2], the inhibition of growth at 1 µg/mL turned out to be 22% and the “% Inhn. Plus Copper Observed” value was 96%.
Compound `Cc1ccc(C(=O)N/N=C/c2ccc(Cl)c(Cl)c2O)c(O)c1` [Compound 41] yielded a melting point of 271 to 278 °C. The inhibition of growth at 0.0125 µg/mL in data set [1] (setting [4]) was 26%. Moreover, the “% Inhn. Plus Copper Observed” value in data set [1] (Test Concn. 0.0125 μg/mL) was determined as 93%. In data set [2], the inhibition of growth at 1 µg/mL worked out at 28% and the “% Inhn. Plus Copper Observed” value worked out at 96%.
`Cc1cccc(C(=O)N/N=C/c2c(Cl)ccc(Cl)c2O)c1` [Compound 42] had a melting point of 214 to 216 °C. For the same compound, the inhibition of growth at 0.05 µg/mL in data set [1] (setting [3]) was 10%. For the same compound, in data set [1] (Test Concn. 0.05 μg/mL), the “% Inhn. Plus Copper Observed” value was determined as 94%. In data set [2], the inhibition of growth at 1 µg/mL was 10% and the “% Inhn. Plus Copper Observed” value is 96%.
In turn, `O=C(N/N=C/c1c(Cl)ccc(Cl)c1O)c1ccc(F)cc1` [Compound 43] returned a melting point of 264 to 267 °C. Also, in data set [1] (setting [3]), the inhibition of growth at 0.05 µg/mL is 23%. The “% Inhn. Plus Copper Observed” value in data set [1] (Test Concn. 0.05 μg/mL) was found to be 95%. Besides, in data set [2], the inhibition of growth at 1 µg/mL turned out to be 9% and the “% Inhn. Plus Copper Observed” value turned out to be 93%.
